Structures can show the parent of a compound that is named as a salt.

For the compound `Cc1cc(N(C)CC(=O)N2CCN(Cc3ccoc3)CC2)ccc1Oc1ccc(NC(=O)c2ccc(C(F)(F)F)cc2)cn1` (as salt: hydrochloride) [compound 792], the melting point (usually the temperature, or range, at which the solid turns liquid) was in the range of 158.5 to 161 °C.

As to `Cc1cc(N(C)CC(=O)N2CCN(Cc3ccc4c(c3)OCO4)CC2)ccc1Oc1ccc(NC(=O)c2ccc(Cl)c(Cl)c2)cn1` (as salt: hydrochloride) [compound 1512], the melting point was 183 to 185 °C (dec.). Turning to `CCN(CC(=O)N1CCN(Cc2ccccc2)CC1)c1ccc(Oc2ccc(NC(=O)c3ccc(C(F)(F)F)cc3)cn2)c(C)c1` (as salt: maleate) [compound 1513], the melting point was 165 to 167 °C. The compound `O=C(Nc1ccc(Oc2ccc(C(=O)N3CCOCC3)cc2)cc1)c1ccc(Cl)c(Cl)c1` [Example No. 10] had a melting point of 189 to 192 °C. For `O=C(Nc1ccc(Oc2ccc(C(=O)N3CCOCC3)cc2)c(F)c1)c1ccc(Cl)c(Cl)c1` [Example No. 11], the melting point lay within 203 to 204 °C.

For the compound `O=C(Nc1ccc(Oc2ccc(C(=O)N3CCN(c4ccccn4)CC3)cc2)nc1)c1ccc(C(F)(F)F)cc1` [compound 176], the melting point lay in the range of 222 to 224 °C. Compound `CC(C)(C)OC(=O)N1CCN(C(=O)CCc2ccc(Oc3ccc(NC(=O)c4ccc(Cl)c(Cl)c4)cc3F)cc2)CC1` [compound 464] returned a melting point of 155 to 157 °C. `O=C(Nc1ccc(Oc2ccc(CCC(=O)N3CCN(c4cccnc4)CC3)cc2)cc1)c1ccc(Cl)c(Cl)c1` [compound 466] yielded a melting point of 153 to 155 °C. For `O=C(Nc1ccc(Oc2ccc(CCC(=O)N3CCN(c4cccnc4)CC3)cc2)c(F)c1)c1ccc(Cl)c(Cl)c1` [compound 467] the value was 183 to 185 °C; for `Cc1cc(N(C)CC(=O)N2CCN(Cc3ccoc3)CC2)ccc1Oc1ccc(NC(=O)c2ccc(Cl)c(Cl)c2)cn1` [compound 718], 116.5 to 118 °C; for `CC(=O)N(CC(=O)N1CCN(Cc2ccc3c(c2)OCO3)CC1)c1ccc(Oc2ccc(NC(=O)c3ccc(Cl)c(Cl)c3)cn2)c(C)c1` [compound 725], 216 to 217 °C. The result for `CCN(CC(=O)N1CCN(Cc2ccc3c(c2)OCO3)CC1)c1ccc(Oc2ccc(NC(=O)c3ccc(Cl)c(Cl)c3)cn2)c(F)c1` [compound 728] reads 149 to 151 °C; that for `CN(CC(=O)N1CCN(Cc2ccc3c(c2)OCO3)CC1)c1ccc(Oc2ccc(NC(=O)c3ccc(Cl)c(Cl)c3)cn2)c(F)c1` [compound 729], 199 to 201 °C; that for `CC(=O)N(CC(=O)N1CCN(Cc2ccc3c(c2)OCO3)CC1)c1ccc(Oc2ccc(NC(=O)c3ccc(Cl)c(Cl)c3)cn2)c(F)c1` [compound 730], 233 to 235 °C.

Take `CC(=O)N(CC(=O)N1CCN(Cc2ccccc2)CC1)c1ccc(Oc2ccc(NC(=O)c3ccc(C(F)(F)F)cc3)cn2)cc1` [compound 771]: the melting point fell in the range of 161 to 162 °C. The result for `CCN(CC(=O)N1CCN(Cc2ccc3c(c2)OCO3)CC1)c1ccc(Oc2ccc(NC(=O)c3ccc(C(F)(F)F)cc3)cn2)cc1` [compound 774] reads 178 to 180 °C. The result for `CCN(CC(=O)N1CCN(Cc2ccc3c(c2)OCO3)CC1)c1ccc(Oc2ccc(NC(=O)c3ccc(C(F)(F)F)cc3)cn2)c(F)c1` [compound 775] reads 170 to 172 °C; that for `CN(CC(=O)N1CCN(Cc2ccc3c(c2)OCO3)CC1)c1ccc(Oc2ccc(NC(=O)c3ccc(C(F)(F)F)cc3)cn2)c(F)c1` [compound 776], 220 to 221 °C; that for `CCN(CC(=O)N1CCN(Cc2ccoc2)CC1)c1ccc(Oc2ccc(NC(=O)c3ccc(C(F)(F)F)cc3)cn2)c(OC)c1` [compound 784], 174 to 176 °C.

Turning to `COc1cc(N(C)CC(=O)N2CCN(Cc3ccoc3)CC2)ccc1Oc1ccc(NC(=O)c2ccc(C(F)(F)F)cc2)cn1` [compound 785], the melting point fell in the range of 160 to 164 °C. The result for `Br.CN(CC(=O)N1CCN(Cc2ccc3c(c2)OCO3)CC1)c1cc(F)c(Oc2ccc(C(=O)Nc3ccc(C(F)(F)F)cc3)cn2)cc1F` [compound 1037, 6-(4-{[2-(4-Piperonylpiperazin-1-yl)-2-oxoethyl]methylamino}-2,5-difluorophenoxy)-N-(4-trifluoromethylphenyl)nicotinamide hydrobromide] reads 224.5 to 226 °C. The result for `O=C(Nc1ccc(Oc2ccc(N3CCN(Cc4ccccc4)C3=O)cc2)nc1)c1ccc(C(F)(F)F)cc1` [compound 1181] reads 203 to 204 °C; that for `O=C(Nc1ccc(Oc2ccc(N3CCN(Cc4ccccc4)C3=O)cc2)nc1)c1ccc(Cl)c(Cl)c1` [compound 1182], 186 to 187 °C; that for `Cc1cc(N2CCCN(Cc3ccc4c(c3)OCO4)C2=O)ccc1Oc1ccc(NC(=O)c2ccc(C(F)(F)F)cc2)cn1` [compound 1183], 165 to 166 °C. For `Cc1cc(N2CCCN(Cc3ccc4c(c3)OCO4)C2=O)ccc1Oc1ccc(NC(=O)c2ccc(Cl)c(Cl)c2)cn1` [compound 1184] the value was 122 to 124 °C. `COc1ccc(CN2CCCN(c3ccc(Oc4ccc(NC(=O)c5ccc(C(F)(F)F)cc5)cn4)c(C)c3)C2=O)cc1OC` [compound 1185] yielded a melting point of 155 to 157 °C. The result for `Cc1cc(N2CCCN(CC(=O)N3CCN(Cc4ccc5c(c4)OCO5)CC3)C2=O)ccc1Oc1ccc(NC(=O)c2ccc(C(F)(F)F)cc2)cn1` [compound 1186] reads 182 to 183.5 °C; that for `COc1ccc(CN2CCCN(c3ccc(Oc4ccc(NC(=O)c5ccc(Cl)c(Cl)c5)cn4)c(C)c3)C2=O)cc1OC` [compound 1187], 117 to 118 °C. For the compound `CCOC(=O)c1ccc(N2CCCN(c3ccc(Oc4ccc(NC(=O)c5ccc(C(F)(F)F)cc5)cn4)c(C)c3)C2=O)cc1` [compound 1188], the melting point was 160 to 161 °C. Consider `Cc1cc(N2CCN(Cc3ccc4c(c3)OCO4)C2=O)ccc1Oc1ccc(NC(=O)c2ccc(C(F)(F)F)cc2)cn1` [compound 1504, N-{6-[2-methyl-4-(2-oxo-3-piperonylimidazolidin-1-yl)phenoxy]pyridin-3-yl}-4-trifluoromethylbenzamide], for which the melting point fell in the range of 188 to 189 °C. With `CCN(CC(=O)N1CCN(Cc2ccccc2)CC1)c1ccc(Oc2ccc(NC(=O)c3ccc(Cl)c(Cl)c3)cn2)c(C)c1` [compound 1514], the melting point lay within 102 to 105 °C. The result for `Cc1cc(N(C)CC(=O)N2CCN(Cc3ccccc3)CC2)ccc1Oc1ccc(NC(=O)c2ccc(C(F)(F)F)cc2)cn1` [compound 1515] reads 110 to 111 °C; that for `Cc1cc(N(C)CC(=O)N2CCN(Cc3ccccc3)CC2)ccc1Oc1ccc(NC(=O)c2ccc(Cl)c(Cl)c2)cn1` [compound 1516], 111 to 113 °C; that for `CN(CC(=O)N1CCN(Cc2ccc3c(c2)OCO3)CC1)c1ccc(Oc2ccc(NS(=O)(=O)c3ccc(Cl)c(Cl)c3)cn2)c(F)c1` [compound 1615, 3,4-dichloro-N-[6-(2-fluoro-4-{methyl[2-oxo-2-(4-piperonylpiperazin-1-yl)ethyl]amino}phenoxy)pyridin-3-yl]benzenesulfonamide], 185.6 to 187 °C. As to `O=C(Nc1ccc(Oc2ccc(N3CCN(S(=O)(=O)c4ccccc4)CC3)cc2)cc1)c1ccc(Cl)c(Cl)c1` [compound 2031, N-{4-[4-(4-benzenesulfonylpiperazin-1-yl)phenoxy]phenyl}-3,4-dichlorobenzamide], the melting point lay in the range of 191 to 192 °C.

The values above are taken from patent US8188277B2, “Aromatic compounds for suppressing the generation of collagen” (Otsuka Pharmaceutical Co., Ltd., priority 2004, dated 2012).
